Assay results published in BindingDB's records for patent US20250313563 (The Broad Institute, 2025).
Values joined by “and” are separate entries in the source; they are usually repeats but may differ in a detail not shown here. Equal entries are not always repeated.

Legend:
[1] = target: Glycogen synthase kinase-3 alpha (Homo sapiens, UniProt P49840); assay: TR-FRET Assay
Procedure, shortened: (§1)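 Kinase activity, measured after a 30-minute compound preincubation, was stopped with EDTA and quantified by TR-FRET using a Tb-labelled pSer641 antibody paired with streptavidin-d2.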

[2] = target: Glycogen synthase kinase-3 beta (Homo sapiens, UniProt P49841); assay: TR-FRET Assay
Procedure, shortened: as §1

Sequence of Glycogen synthase kinase-3 alpha (P49840 whole entry): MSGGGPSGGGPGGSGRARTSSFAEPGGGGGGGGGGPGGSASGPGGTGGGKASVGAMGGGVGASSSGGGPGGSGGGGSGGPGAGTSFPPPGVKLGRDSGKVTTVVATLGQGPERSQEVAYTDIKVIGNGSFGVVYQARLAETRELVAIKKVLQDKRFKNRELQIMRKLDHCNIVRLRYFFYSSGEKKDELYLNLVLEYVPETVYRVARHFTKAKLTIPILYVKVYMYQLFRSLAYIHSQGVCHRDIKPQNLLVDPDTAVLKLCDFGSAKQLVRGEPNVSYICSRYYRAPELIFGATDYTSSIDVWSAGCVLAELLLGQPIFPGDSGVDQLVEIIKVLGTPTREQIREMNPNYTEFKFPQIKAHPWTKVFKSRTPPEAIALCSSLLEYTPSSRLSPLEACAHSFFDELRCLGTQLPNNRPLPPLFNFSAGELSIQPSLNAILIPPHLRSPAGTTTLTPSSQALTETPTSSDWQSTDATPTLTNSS
Sequence of Glycogen synthase kinase-3 beta (P49841 whole entry): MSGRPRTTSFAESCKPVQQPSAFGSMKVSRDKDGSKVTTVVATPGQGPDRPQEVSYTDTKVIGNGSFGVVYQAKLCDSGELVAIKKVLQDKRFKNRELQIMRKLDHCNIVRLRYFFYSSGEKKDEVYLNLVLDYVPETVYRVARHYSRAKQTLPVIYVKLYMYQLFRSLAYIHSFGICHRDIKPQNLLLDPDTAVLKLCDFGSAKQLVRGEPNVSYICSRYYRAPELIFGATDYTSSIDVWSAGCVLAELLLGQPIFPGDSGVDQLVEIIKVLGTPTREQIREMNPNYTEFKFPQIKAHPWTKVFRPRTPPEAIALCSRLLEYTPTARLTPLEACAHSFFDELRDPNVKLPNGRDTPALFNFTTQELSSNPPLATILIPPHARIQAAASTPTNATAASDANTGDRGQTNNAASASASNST

| IC50 [1] | IC50 [2] | Compound |
| --- | --- | --- |
| > 5000 nM | 1000 to 5000 nM | COc1cncc(F)c1-c1cccc([C@@]2(C)C3=C(CC(C)(C)CC3=O)NC3=C2C(CC(C)(C)C)N=N3)c1 (some centres undefined) [US20250313563, Compound 108956] |
| < 100 nM | < 100 nM | CCC1(c2cccc(C3=CN=NC3)c2)C2=C(CC(C)(C)CC2=O)NC2N=NC(C)=C21 (centres undefined) [US20250313563, Compound 883994] |
| 100 to 1000 nM | 1000 to 5000 nM | CC(=O)N1CC[C@@]2(C1)C[C@@]1(CO2)C2=C(N=NC2)NC2=C1C(=O)CC(C)(C)C2 [US20250313563, Compound 948320] |
| 100 to 1000 nM | < 100 nM | CC(C)(C)CC1=C2C(N=N1)NC1=C(C(=O)CC(C)(C)C1)[C@@]21CCc2cccc(F)c21 (some centres undefined) [US20250313563, Compound 801352] |
| 100 to 1000 nM | 1000 to 5000 nM | CCC1(c2cccc(N(C)c3nccn3C)c2)C2=CN=NC2NC2=C1C(=O)CC(C)(C)C2 (centres undefined) [US20250313563, Compound 885402] |
| > 5000 nM | > 5000 nM | CC[C@]1(c2cccc(-c3ccnc(C)c3OC)c2)C2=CN=NC2NC2=C1C(=O)CC(C)(C)C2 (some centres undefined) [US20250313563, Compound 946002] |
| < 100 nM | 100 to 1000 nM | CCC1(c2cccc(C(F)(F)F)c2)C2=CN=NC2NC2=C1C(=O)CC(C)C2 (centres undefined) [US20250313563, Compound 801397] |
| < 100 nM | 100 to 1000 nM | COc1ccc(S(=O)(=O)N2CCC[C@@]3(CC2)C2=CN=NC2NC2=C3C(=O)CC(C)(C)C2)cc1 (some centres undefined) [US20250313563, Compound 932661] |
| > 5000 nM | > 5000 nM | CC[C@]1(c2cccc(-c3ccncc3OC3CC3)c2)C2=CN=NC2NC2=C1C(=O)NC(C)(C)C2 (some centres undefined) [US20250313563, Compound 948643] |
| 100 to 1000 nM | 1000 to 5000 nM | Cc1cc(C)cc(C(=O)N2CC3(C2)C[C@]2(CO3)C3=C(N=NC3)NC3=C2C(=O)CC(C)(C)C3)c1 [US20250313563, Compound 948222] |
| < 100 nM | 1000 to 5000 nM | CCC1(c2cccc(-c3ccnc(C(C)(C)O)c3)c2)C2=CN=NC2NC2=C1C(=O)CC(C)(C)C2 (centres undefined) [US20250313563, Compound 943536] |
| 1000 to 5000 nM | > 5000 nM | CC[C@@]1(c2cccc(OCC(F)F)c2)C2=CN=NC2NC2=C1C(=O)CC(C)(C)C2 (some centres undefined) [US20250313563, Compound 949113] |
| < 100 nM | < 100 nM | CCC1(c2ccc(C)cc2)C2=C(CC(C)(C)CC2=O)NC2N=NC(C(F)(F)F)=C21 (centres undefined) [US20250313563, Compound 883866] |
| > 5000 nM | 1000 to 5000 nM | CC(C)(C)CC1N=NC2=C1[C@](C)(c1ccccc1)C1=C(CC(C)(C)NC1=O)N2 (some centres undefined) [US20250313563, Compound 114531] |
| 1000 to 5000 nM | > 5000 nM | C[C@H]1COCC[C@]12C1=CN=NC1NC1=C2C(=O)CC(C)(C)C1 (some centres undefined) [US20250313563, Compound 924309] |
| 100 to 1000 nM | 1000 to 5000 nM | CC[C@]1(c2cccc(C(F)(F)F)c2)C2=CN=NC2NC2=C1C(=O)N(c1cnc(OC)nc1)[C@@H](C)C2 (some centres undefined) [US20250313563, Compound 949354] |
| < 100 nM | < 100 nM | CCN(C(C)=O)c1cccc(C2(CC)C3=CN=NC3NC3=C2C(=O)CC(C)(C)C3)c1 (centres undefined) [US20250313563, Compound 884109] |
| 1000 to 5000 nM | > 5000 nM | CC[C@]1(c2cccc(C3=CNN4CC(F)=CC(F)=C34)c2)C2=CN=NC2NC2=C1C(=O)NC(C)(C)C2 (some centres undefined) [US20250313563, Compound 949390] |
| < 100 nM and 100 to 1000 nM | < 100 nM and 1000 to 5000 nM | Cc1cc(S(=O)(=O)N2CCC3(CC2)C2=C(N=NC2)NC2=C3C(=O)CC(C)(C)C2)cc(C)n1 [US20250313563, Compound 947616] |
| 100 to 1000 nM | 1000 to 5000 nM | CC[C@@]1(c2cccc(-c3ccnc(OC)c3)c2)C2=C(CC(C)(C)CC2=O)NC2N=NC(C)=C21 (some centres undefined) [US20250313563, Compound 913016] |
| < 100 nM | < 100 nM | CC[C@]1(c2cccc(N3CCOCC3)c2)C2=C(CC(C)(C)CC2=O)NC2N=NC(C)=C21 (some centres undefined) [US20250313563, Compound 889581] |
| 100 to 1000 nM | 1000 to 5000 nM | CC[C@@]1(c2cccc(-c3ccncc3C)c2)C2=CN=NC2NC2=C1C(=O)CC(C)(C)C2 (some centres undefined) [US20250313563, Compound 943991] |
| > 5000 nM | > 5000 nM | CC[C@@]1(c2cccc(-c3c(C)cnc4c(C)cccc34)c2)C2=CN=NC2NC2=C1C(=O)NC(C)(C)C2 (some centres undefined) [US20250313563, Compound 952760] |
| 100 to 1000 nM | 100 to 1000 nM | CC[C@]1(c2cccc(-c3cncn3C)c2)C2=C(CC(C)(C)NC2=O)NC2N=NC(C(F)(F)F)=C21 (some centres undefined) [US20250313563, Compound 949003] |
| 100 to 1000 nM | 1000 to 5000 nM | CC1CCC12C1=C(N=NC1)NC1=C2C(=O)CC(C)(C)C1 (centres undefined) [US20250313563, Compound 949640] |
| < 100 nM | < 100 nM and 100 to 1000 nM | CC[C@]1(c2cccc(-c3c(C)nnn3C)c2)C2=CN=NC2NC2=C1C(=O)CC(C)(C)C2 (some centres undefined) [US20250313563, Compound 946099] |

| IC50 [1] | IC50 [2] | Compound |
| --- | --- | --- |
| < 100 nM | < 100 nM | CCC1(c2cccc(-c3ccnc4c3CCC4)c2)C2=CN=NC2NC2=C1C(=O)CC(C)(C)C2 (centres undefined) [US20250313563, Compound 943534] |
| 100 to 1000 nM | 1000 to 5000 nM | CCC1(c2cccc(-c3ccnc(C(C)C)c3)c2)C2=CN=NC2NC2=C1C(=O)CC(C)(C)C2 (centres undefined) [US20250313563, Compound 930569] |
| 1000 to 5000 nM | > 5000 nM | CC1(C)CC(=O)C2=C(C1)NC1=C(CN=N1)C2(C)CCc1ccccc1 (centres undefined) [US20250313563, Compound 819562] |
| < 100 nM | < 100 nM and 100 to 1000 nM | CC[C@]1(c2cccc(S(=O)(=O)C3CC3)c2)C2=C(CC(C)(C)NC2=O)NC2=C1C(C(F)(F)F)N=N2 (some centres undefined) [US20250313563, Compound 948771] |
| < 100 nM | 100 to 1000 nM | CCC1(c2cccc(-c3cc(C)ncn3)c2)C2=CN=NC2NC2=C1C(=O)CC(C)(C)C2 (centres undefined) [US20250313563, Compound 948089] |
| 100 to 1000 nM | 1000 to 5000 nM | CC[C@]1(c2cccc(-c3ccncc3F)c2)C2=C(CC(C)(C)NC2=O)NC2N=NC(C)=C21 (some centres undefined) [US20250313563, Compound 947805] |
| < 100 nM | 100 to 1000 nM | CC[C@@]1(c2cccc(C3=C4CC=C(F)C=C4N=CC3)c2)C2=CN=NC2NC2=C1C(=O)NC(C)(C)C2 (some centres undefined) [US20250313563, Compound 948528] |
| > 5000 nM | > 5000 nM | CC[C@@]1(c2cc(-c3ccnc(C)c3)ccc2F)C2=CN=NC2NC2=C1C(=O)CC(C)(C)C2 (some centres undefined) [US20250313563, Compound 909213] |
| 1000 to 5000 nM | > 5000 nM | CCC1(c2cccc(N(C)c3cc(C)nc(C)c3)c2)C2=CN=NC2NC2=C1C(=O)CC(C)(C)C2 (centres undefined) [US20250313563, Compound 913256] |
| < 100 nM | 100 to 1000 nM | CCC1(c2cccc(N(C)c3ccncn3)c2)C2=CN=NC2NC2=C1C(=O)CC(C)(C)C2 (centres undefined) [US20250313563, Compound 902970] |
| < 100 nM | 100 to 1000 nM | CCC1(c2cccc(-c3cnn(C)c3)c2)C2=C(CC(C)(C)CC2=O)NC2N=NC(C)=C21 (centres undefined) [US20250313563, Compound 884000] |
| < 100 nM | < 100 nM | CC1(C)CC(=O)C2=C(C1)NC1=C(CN=N1)C21COC2(CN(C(=O)C3(F)CC3)C2)C1 (centres undefined) [US20250313563, Compound 947487] |
| < 100 nM | 100 to 1000 nM | CCC1(c2cccc(-c3cnn(C)c3)c2)C2=C(CC(C)(C)NC2=O)NC2N=NC(C)=C21 (centres undefined) [US20250313563, Compound 944027] |
| < 100 nM | 100 to 1000 nM | CC[C@@]1(c2cccc(N(C)c3cc(C)cc(C)n3)c2)C2=CN=NC2NC2=C1C(=O)CC(C)(C)C2 (some centres undefined) [US20250313563, Compound 945610] |
| 100 to 1000 nM | 1000 to 5000 nM | CC1(C)CC(=O)C2=C(C1)NC1=C(CN=N1)[C@]21COC2(CN(C(=O)C3CCCC3)C2)C1 [US20250313563, Compound 943958] |
| < 100 nM and 100 to 1000 nM | < 100 nM and 1000 to 5000 nM | CC[C@@]1(c2cccc(-c3c(F)cncc3F)c2)C2=CN=NC2NC2=C1C(=O)NC(C)(C)C2 (some centres undefined) [US20250313563, Compound 948525] |
| < 100 nM | < 100 nM | CCC1(c2cccc(-c3c(C)nn(C)c3C)c2)C2=C(CC(C)(C)NC2=O)NC2N=NC(C(F)(F)F)=C21 (centres undefined) [US20250313563, Compound 947568] |
| 100 to 1000 nM | 1000 to 5000 nM | CC[C@]1(c2cccc(-c3cnn(C)c3)c2)C2=CN=NC2NC2=C1C(=O)CC(C)(C)[C@@H]2F (some centres undefined) [US20250313563, Compound 957504] |
| < 100 nM | < 100 nM | Cn1cc(S(=O)(=O)N2CC[C@@]3(C2)C2=C(N=NC2)NC2=C3C(=O)CC(C)(C)C2)cn1 [US20250313563, Compound 943483] |
| < 100 nM | 100 to 1000 nM | CCC1(c2cccc(-c3ccnc(C(C)O)c3)c2)C2=CN=NC2NC2=C1C(=O)CC(C)(C)C2 (centres undefined) [US20250313563, Compound 944029] |
| > 5000 nM | > 5000 nM | CC1(C)CC(=O)C2=C(C1)NC1=C(CN=N1)C21CCN(c2ccncc2)CC1 [US20250313563, Compound 880765] |
| 1000 to 5000 nM | > 5000 nM | Cn1nccc1CN1CC2(C1)C1=C(N=NC1)NC1=C2C(=O)CC(C)(C)C1 [US20250313563, Compound 932653] |
| < 100 nM | < 100 nM and 100 to 1000 nM | CCC1(c2cccc(-c3c(F)cncc3OC)c2)C2=CN=NC2NC2=C1C(=O)CC(C)(C)C2 (centres undefined) [US20250313563, Compound 945704] |
| < 100 nM | 100 to 1000 nM | CC1(C)CC(=O)C2=C(C1)NC1=C(CN=N1)C21CSC1 [US20250313563, Compound 889567] |
| < 100 nM | < 100 nM | CCC1(c2cccc(-c3ccncc3F)c2)C2=C(CC(C)(C)NC2=O)NC2N=NC(C(F)(F)F)=C21 (centres undefined) [US20250313563, Compound 947866] |
| 100 to 1000 nM | 100 to 1000 nM | C[C@@H]1CCC[C@]2(C1)C1=C(N=NC1)NC1=C2C(=O)CC(C)(C)C1 [US20250313563, Compound 874537] |
